The assay has as its system Clostridium difficile infection (CDI). The assay can be described thus: Concomitant antibiotics (CAs) during CDI treatment: PO fidaxomicin vs PO vancomycin, clinical outcome review. The conditions noted are these: for Global Cure (clinical cure with no recurrence) / Clinical Cure / Recurrence: per protocol (PP); for Clinical Cure: 10 days of study drug; for Recurrence: CDI recurrence during 4-wk follow-up. It is filed as in vivo, human. The protocol:
Administration of concomitant antibiotics (CAs) to subjects during the 10 days of study drug administration (PO Fidaxomicin (FDX 200 mg BID)) vs. (PO Vancomycin (Vanc 125 mg QID)) through 4-wk follow-up period was reviewed. End points were the effect of CAs on clinical cure, CDI recurrence during 4-wk follow-up, and global cure (clinical cure with no recurrence).

Setting [1] is: in those who received CAs, in words.

SMILES strings stand for the structures.

This note sets out measurements from patent US20130331347A1, “Treatment of Clostridium Difficile Infection in Patients Undergoing Antibiotic Therapy” (Optimer Pharmaceuticals, Inc., priority 2010, published 2013).

In the case of `CCc1c(Cl)c(O)c(Cl)c(O)c1C(=O)O[C@H]1[C@H](O)[C@H](OC)[C@H](OC/C2=C\C=C\C[C@H](O)/C(C)=C/[C@H](CC)[C@@H](O[C@@H]3OC(C)(C)[C@@H](OC(=O)C(C)C)[C@H](O)[C@@H]3O)/C(C)=C/C(C)=C/C[C@@H]([C@@H](C)O)OC2=O)O[C@@H]1C` [FDX, fidaxomicin], for the setting “CA (concomitant antibiotics)”, the “Global Cure (clinical cure with no recurrence)” value was found to be 72%, the “Clinical Cure” value worked out at 87% and the Recurrence was 23%. In addition, for the setting “No CA”, the “Global Cure (clinical cure with no recurrence)” value was 79%, the “Clinical Cure” value was found to be 93% and the Recurrence is given as 11%. Further, under setting [1], the “CDI recurrences compared to Vanc” value was “lower” and the “global cures compared to Vanc” value is given as “significantly improved”.

`CN[C@H](CC(C)C)C(=O)N[C@H]1C(=O)N[C@@H](CC(N)=O)C(=O)N[C@H]2C(=O)N[C@H]3C(=O)N[C@H](C(=O)N[C@H](C(=O)O)c4cc(O)cc(O)c4-c4cc3ccc4O)[C@H](O)c3ccc(c(Cl)c3)Oc3cc2cc(c3O[C@@H]2O[C@H](CO)[C@@H](O)[C@H](O)[C@H]2O[C@H]2C[C@](C)(N)[C@H](O)[C@H](C)O2)Oc2ccc(cc2Cl)[C@H]1O` [Vanc, Vancomycin, reference compound]: where the note is “CA (concomitant antibiotics)”, the “Global Cure (clinical cure with no recurrence)” value is recorded as 50%, the “Clinical Cure” value was 77% and the Recurrence is 40%. For the setting “No CA”, the “Global Cure (clinical cure with no recurrence)” value was 72%, the “Clinical Cure” value turned out to be 94% and the Recurrence turned out to be 18%.
